Test results: patent US20100130522A1, “COMPOUNDS FOR INFLAMMATION AND IMMUNE-RELATED USES” (Synta Pharmaceuticals Corp., priority 2008, published 2010)
Structures can show the parent of a compound that is named as a salt.

What was measured:
[1] = system: IL-2 production, Jurkat cells; assay: Inhibition of IL-2 production in PHA-activated Jurkat cells (ELISA); format: cell-based; conditions: Homo sapiens, 1% FBS
Protocol: Jurkat cells were placed in a 96 well plate (0.5 million cells per well in 1% FBS medium), and then a test compound of this invention was added at different concentrations. After 10 minutes, the cells were activated with PHA (final concentration 2.5 μg/mL) and incubated for 20 hours at 37° C. under 5% CO2. The final volume was 200 μL. Following incubation, the cells were centrifuged, and the supernatants collected and stored at −70° C. prior to assaying for IL-2 production. A commercial ELISA kit (IL-2 Eli-pair, Diaclone Research, Besancon, France) was used to detect production of IL-2, from which dose response curves were obtained. The IC50 value was calculated as the concentration at which 50% of maximum IL-2 production after stimulation was inhibited versus a non-stimulation control.

CRACM1/STIM1-CHOK1 = target: T1, CRACM1/STIM1-CHOK1 (Homo sapiens, UniProt Q96D31); assay: Patch clamp inhibition of ICRAC current in CRACM1/STIM1-CHOK1 cells; format: cell-based; conditions: 500 nM; given as activity class
T1 construct: Full length human Stim1, CracM1, CracM2 and CracM3 cDNA; Stim1 induced with doxycycline
Protocol: Manual patch clamp experiments are conducted in the tight-seal whole-cell configuration at room temperature (21-25° C.). Patch pipettes are fashioned from borosilicate glass capillary tubes and have resistances between 2-4 MΩ after filling with standard intracellular solution. High resolution current recordings are acquired with a computer-based patch clamp amplifier system (EPC-10, HEKA, Lambrecht, Germany). All voltages are corrected for a liquid junction potential of 10 mV between external and internal solutions with glutamate as the intracellular anion. Currents are filtered at 2.9 kHz and digitized at 10 μs intervals. Capacitive currents and series resistance are determined and corrected before each voltage ramp using the automatic capacitance compensation of the EPC-10.
Automated patch clamp experiments are conducted with the QPatch 16 (Sophion Bioscience, Ballerup, Denmark) at room temperature (21-25° C.). Immediately following the establishment of giga-seal whole-cell configuration, the cells membrane potential is clamped at 0 mV. Voltage ramps of 50 ms duration spanning the voltage range of −100 to +100 mV are then stimulated at a rate of 0.33 Hz. Currents are filtered at 2.9 kHz and digitized at 200 μs intervals. Capacitive currents and series resistance are determined and corrected before each voltage ramp using the automatic capacitance compensation.
In general, a whole cell patch clamp method is used to examine the effects of a compound of the invention on a channel(s) that mediates ICRAC. In such experiments, a baseline ICRAC measurement is established within the first 70 voltage ramps, or 140 seconds, for a patched cell. Then the cells are perfused with the compound to be tested and the effect of the compound on ICRAC is measured for at least an additional 440 to 500 seconds. A compound that modulates ICRAC (e.g., inhibits) is a compound that is useful in the invention for modulating CRAG ion channel activity.
Off-line analysis with the Heka PatchMaster software is used to separate the ICRAC membrane current from the cells basal background currents. In a typical recording, InsP3 stimulated ICRAC currents begin to develop in 6 to 12 seconds after whole cell is established. Therefore, the first 1-4 voltage ramps represent the basal membrane currents in the absence of ICRAC and the average value is subtracted from all subsequent traces. The current value at −80 mV for each ramp trace is then measured and plotted against time. The resulting current versus time data is exported into a Microsoft Excel spreadsheet. The % ICRAC inhibition in each cell is calculated by comparing the amount of current just prior to the compound perfusion to the amount of current after the cells has been perfused with the compound for 440-500 seconds. The IC50 value and Hill coefficient for each compound is estimated by fitting all the individual data points to a single-site Hill equation.
TREx™-CHO cells were transfected with human Stim1 (recombinant DNA in pcDNA4/TO/myc-His™ A with a myc epitope tag in the N-terminal) and either CracM1, CracM2 or CracM3 (recombinant DNA in pcDNA 3.1 with a HA epitope tag in the N-terminal). Stably expressing cells were selected by growing the transfected cells in antibiotics for two to three weeks. Individual cell clones were isolated via serial dilution. Full length human Stim1, CracM1, CracM2 and CracM3 cDNA, TREx™-CHO cells, pcDNA4/TO/myc-His™ A and pcDNA 3.1 were purchased from Invitrogen (Carlsbad, Calif.). All cells clones are grown in Ham's F-12 media supplemented with 10% fetal bovine serum, penicillin 100 U/ml, streptomycin 100 ? g/ml, Zeocin™ (200 ? g/ml), Geneticin (500 ? g/ml) and blasticidin (10 ? g/ml) in an atmosphere of 95% air/5% CO2. Stim1 expression was induced with doxycycline (1 ? g/ml) for 16-20 hrs. […]

T1 sequence (Q96D31 whole entry): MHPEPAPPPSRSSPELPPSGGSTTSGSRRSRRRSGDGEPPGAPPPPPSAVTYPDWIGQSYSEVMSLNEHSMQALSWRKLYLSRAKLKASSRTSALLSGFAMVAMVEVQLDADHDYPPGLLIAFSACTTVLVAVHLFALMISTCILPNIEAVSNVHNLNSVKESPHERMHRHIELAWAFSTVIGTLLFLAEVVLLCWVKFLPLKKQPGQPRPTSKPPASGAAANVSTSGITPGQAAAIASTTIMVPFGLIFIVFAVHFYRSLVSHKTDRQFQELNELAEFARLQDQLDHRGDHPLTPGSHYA

| Compound | IC50 ([1]; given as activity class) | inhibition at 0.5 µM (CRACM1/STIM1-CHOK1) | IC50 ([1]; numeric values) |
| --- | --- | --- | --- |
| Cn1cncc1-c1cnc(-c2ccc(Cl)c(-c3ccc(NC(=O)c4c(F)cccc4F)nc3)c2)s1 [Compound 18, N-(5-(2-chloro-5-(5-(1-methyl-1H-imidazol-5-yl)thiazol-2-yl)phenyl)pyridin-2-yl)-2,6-difluorobenzamide] | 50 to 100 nM | 50 to 70% |  |
| Cc1ccc(C#Cc2cccnc2)cc1-c1ccc(NC(=O)c2c(F)cccc2F)cc1 [Compound 2, 2,6-difluoro-N-(2′-methyl-5′-(pyridin-3-ylethynyl)biphenyl-4-yl)benzamide] | < 50 nM | 70 to 100% |  |
| O=C(Nc1ccc(-c2cc(Oc3nccs3)ccc2Cl)cc1)c1c(F)cccc1F [Compound 11, N-(2′-chloro-5′-(thiazol-2-yloxy)biphenyl-4-yl)-2,6-difluorobenzamide] | < 50 nM | 70 to 100% |  |
| Cc1ccc(Oc2cccnc2)cc1-c1ccc(NC(=O)c2c(F)cccc2F)cc1 [Compound 6, 2,6-difluoro-N-(2′-methyl-5′-(pyridin-3-yloxy)biphenyl-4-yl)benzamide] | < 50 nM | 70 to 100% |  |
| Cc1ccc(-c2nc(-c3cccnc3)cs2)cc1-c1ccc(NC(=O)c2c(F)cccc2F)cc1 [Compound 19, 2,6-difluoro-N-(2′-methyl-5′-(4-(pyridin-3-yl)thiazol-2-yl)biphenyl-4-yl)benzamide hydrochloride] | < 50 nM | < 50% |  |
| Cc1ccc(Cn2ccnc2)cc1-c1ccc(NC(=O)c2c(F)cccc2F)cc1 [Compound 14, N-(5′-((1H-imidazol-1-yl)methyl)-2′-methylbiphenyl-4-yl)-2,6-difluorobenzamide] | < 50 nM | 70 to 100% |  |
| Cc1ccc(Oc2ccccn2)cc1-c1cnc(NC(=O)c2c(F)cccc2F)cn1 [Compound 32, 2,6-difluoro-N-(5-(2-methyl-5-(pyridin-2-yloxy)phenyl)pyrazin-2-yl)benzamide] |  |  | 27 nM |
| Cc1ccc(CCc2ccccn2)cc1-c1ccc(NC(=O)c2c(F)cccc2F)cc1 [Compound 17, 2,6-difluoro-N-(2′-methyl-5′-(2-(pyridin-2-yl)ethyl)biphenyl-4-yl)benzamide] | 50 to 100 nM | 70 to 100% |  |
| Cc1cnc(Oc2ccc(Cl)c(-c3ccc(NC(=O)c4c(F)cccc4F)cc3)c2)s1 [Compound 10, N-(2′-chloro-5′-(5-methylthiazol-2-yloxy)biphenyl-4-yl)-2,6-difluorobenzamide] | 50 to 100 nM | 70 to 100% |  |
| Cc1ccc(Oc2cccnc2)cc1-c1ccc(NC(=O)c2c(F)cccc2F)nc1 [Compound 7, 2,6-difluoro-N-(5-(2-methyl-5-(pyridin-3-yloxy)phenyl)-pyridin-2-yl)benzamide] | < 50 nM | 70 to 100% |  |
| Cc1ccc(Nc2ccccn2)cc1-c1ccc(NC(=O)c2c(F)cccc2F)cc1 [Compound 3, 2,6-difluoro-N-(2′-methyl-5′-(pyridin-2-ylamino)biphenyl-4-yl)benzamide] | < 50 nM | 50 to 70% |  |
| COc1ccc(-c2ccc(C)c(-c3ccc(NC(=O)c4c(F)cccc4F)cc3)c2)cn1 [Compound 22, 2,6-difluoro-N-(5′-(6-methoxypyridin-3-yl)-2′-methylbiphenyl-4-yl)benzamide] | < 50 nM | 70 to 100% |  |
| Cc1ccc(CCc2cccnc2)cc1-c1ccc(NC(=O)c2c(F)cccc2F)cc1 [Compound 15, 2,6-difluoro-N-(2′-methyl-5′-(2-(pyridin-3-yl)ethyl)biphenyl-4-yl)benzamide] | < 50 nM | 70 to 100% |  |
| Cc1ccc(CCc2cccnc2)cc1-c1cnc(NC(=O)c2c(F)cccc2F)cn1 [Compound 16, 2,6-difluoro-N-(5-(2-methyl-5-(2-(pyridin-3-yl)ethyl)phenyl)-pyrazin-2-yl)benzamide] | < 50 nM | 50 to 70% |  |
| Cc1ccc(Oc2cccnc2)cc1-c1cnc(NC(=O)c2c(F)cccc2F)cn1 [Compound 8, 2,6-difluoro-N-(5-(2-methyl-5-(pyridin-3-yloxy)phenyl)-pyrazin-2-yl)benzamide] | < 50 nM | 70 to 100% |  |
| Cc1ccc(Oc2ccccn2)cc1-c1ccc(NC(=O)c2c(F)cccc2F)nc1 [Compound 9, 2,6-difluoro-N-(5-(2-methyl-5-(pyridin-2-yloxy)phenyl)-pyridin-2-yl)benzamide] | < 50 nM | 70 to 100% |  |
| O=C(Nc1ccc(-c2cc(Oc3ccccn3)ccc2Cl)cn1)c1c(F)cccc1F [Compound 5, N-(5-(2-chloro-5-(pyridin-2-yloxy)phenyl)pyridin-2-yl)-2,6-difluorobenzamide] | < 50 nM | 70 to 100% |  |
| Cc1ccc(C#Cc2cccnc2)cc1-c1cnc(NC(=O)c2c(F)cccc2F)cn1 [Compound 1, 2,6-difluoro-N-(5-(2-methyl-5-(pyridin-3-ylethynyl)phenyl)-pyrazin-2-yl)benzamide] | < 50 nM | 70 to 100% |  |
| Cc1ccc(-c2ncc(-c3cnco3)s2)cc1-c1ccc(NC(=O)c2c(F)cccc2F)cc1 [Compound 21, 2,6-difluoro-N-(2′-methyl-5′-(5-(oxazol-5-yl)thiazol-2-yl)biphenyl-4-yl)benzamide] | 50 to 100 nM | < 50% |  |

Continued, values first:

| IC50 ([1]; given as activity class) | inhibition at 0.5 µM (CRACM1/STIM1-CHOK1) | IC50 ([1]; numeric values) | Compound |
| --- | --- | --- | --- |
|  |  | 21 nM | COc1ccc(Oc2ccccn2)cc1-c1ccc(NC(=O)c2cccc(F)c2C)nc1 [Compound 38, 3-fluoro-N-(5-(2-methoxy-5-(pyridin-2-yloxy)phenyl)pyridin-2-yl)-2-methylbenzamide] |
|  |  | 14 nM | Cc1cc(Oc2cccnc2)ncc1-c1ccc(NC(=O)c2cccc(F)c2C)nc1 [Compound 34, 3-fluoro-2-methyl-N-(4′-methyl-6′-(pyridin-3-yloxy)-3,3′-bipyridin-6-yl)benzamide] |
|  |  | 39 nM | Cc1ccc(Oc2ccncc2)cc1-c1ccc(NC(=O)c2cccc(F)c2C)nc1 [Compound 40, 3-fluoro-2-methyl-N-(5-(2-methyl-5-(pyridin-4-yloxy)phenyl)pyridin-2-yl)benzamide] |
|  |  | 16 nM | Cc1ccc(Oc2ccccn2)cc1-c1ccc(NC(=O)c2ccncc2F)nc1 [Compound 35, 3-fluoro-N-(5-(2-methyl-5-(pyridin-2-yloxy)phenyl)pyridin-2-yl)isonicotinamide] |
|  |  | 90 nM | Cc1ccc(Oc2ccccn2)cc1-c1ccc(NC(=O)c2cccc(F)c2C)nc1 [Compound 33, 3-fluoro-2-methyl-N-(5-(2-methyl-5-(pyridin-2-yloxy)phenyl)pyridin-2-yl)benzamide] |
|  |  | 47 nM | Cc1c(F)cccc1C(=O)Nc1ccc(-c2cc(Oc3cccnc3)ccc2C(F)(F)F)cn1 [Compound 41, 3-fluoro-2-methyl-N-(5-(5-(pyridin-3-yloxy)-2-(trifluoromethyl)phenyl)pyridin-2-yl)benzamide] |
|  |  | 16 nM | O=C(Nc1cnc(-c2cc(Oc3ccccn3)ccc2Cl)cn1)c1c(F)cccc1F [Compound 36, N-(5-(2-chloro-5-(pyridin-2-yloxy)phenyl)pyrazin-2-yl)-2,6-difluorobenzamide] |
|  |  | 25 nM | COc1ccc(Oc2ccccn2)cc1-c1cnc(NC(=O)c2c(F)cccc2F)cn1 [Compound 39, 2,6-difluoro-N-(5-(2-methoxy-5-(pyridin-2-yloxy)phenyl)pyrazin-2-yl)benzamide] |
